These results are taken from the supplement of paper PMC10307832.

Each structure is given as a SMILES string.

For the first assay, the system named is UMC-11. As to the kind of experiment: relative viability (nuclei count vs DMSO), 5 days (fraction); higher = more cells survive. The following applies: first compound 20 µM. The method, boiled down: (§1)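 A single step with final 0.05% Triton X-100, 1% formaldehyde and 1 ug/ml Hoechst fixed the cells and stained nuclei 5 days after treatment. Lung cancer cell lines in 1536-well plates had been treated by pin tool the day after seeding with one drug alone or a fixed anchor-drug dose plus five library-drug doses (not always all listed) in √10 steps, and nuclei were counted on 4× images. Relative viability is the ratio of nuclei in treated wells to nuclei in vehicle wells, taken as the median of duplicate plates.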
In the case of `COCC1(CO)C(=O)C2CCN1CC2` (stereo unspecified) [PRIMA-1MET] + Nc1ncn([C@H]2C[C@H](O)[C@@H](CO)O2)c(=O)n1 [Decitabine] (partner 2 µM), the relative viability is 0.46.

The subject of the next assay is NCI-H1792. The description is as above. Conditions: first compound 0.2 µM. The method, boiled down:
as §1
`COCC1(CO)C(=O)C2CCN1CC2` (stereo unspecified) [PRIMA-1MET] + NC(=O)Nc1cc(-c2cccc(F)c2)sc1C(=O)N[C@H]1CCCNC1 [AZD7762] (partner 0.2 µM) gave a relative viability of 0.569.
The same measure, in the same setting: the figure for `COCC1(CO)C(=O)C2CCN1CC2` (stereo unspecified) [PRIMA-1MET] + Nc1nc2[nH]cc(CCc3ccc(C(=O)N[C@@H](CCC(=O)O)C(=O)O)cc3)c2c(=O)[nH]1 [Pemetrexed] (partner 0.2 µM) is 0.713; for `COCC1(CO)C(=O)C2CCN1CC2` (stereo unspecified) [PRIMA-1MET] + CC(=O)Nc1cccc(-n2c(=O)n(C3CC3)c(=O)c3c(Nc4ccc(I)cc4F)n(C)c(=O)c(C)c32)c1 [Trametinib] (partner 0.02 µM) it is 0.413; for `COCC1(CO)C(=O)C2CCN1CC2` (stereo unspecified) [PRIMA-1MET] + Nc1ncn([C@H]2C[C@H](O)[C@@H](CO)O2)c(=O)n1 [Decitabine] (partner 2 µM) it is 0.523.

Staying with this assay, now noted: first compound 6.325 µM.
In turn, `COCC1(CO)C(=O)C2CCN1CC2` (stereo unspecified) [PRIMA-1MET] + NC(=O)Nc1cc(-c2cccc(F)c2)sc1C(=O)N[C@H]1CCCNC1 [AZD7762] (partner 0.2 µM) came in with a relative viability of 0.907.
Same read-out and setting: the value for `COCC1(CO)C(=O)C2CCN1CC2` (stereo unspecified) [PRIMA-1MET] + Nc1nc2[nH]cc(CCc3ccc(C(=O)N[C@@H](CCC(=O)O)C(=O)O)cc3)c2c(=O)[nH]1 [Pemetrexed] (partner 0.2 µM) was 0.947.
Same read-out and setting: the figure for `COCC1(CO)C(=O)C2CCN1CC2` (stereo unspecified) [PRIMA-1MET] + CC(=O)Nc1cccc(-n2c(=O)n(C3CC3)c(=O)c3c(Nc4ccc(I)cc4F)n(C)c(=O)c(C)c32)c1 [Trametinib] (partner 0.02 µM) is 0.434.
In the case of `COCC1(CO)C(=O)C2CCN1CC2` (stereo unspecified) [PRIMA-1MET] + Nc1ncn([C@H]2C[C@H](O)[C@@H](CO)O2)c(=O)n1 [Decitabine] (partner 2 µM), the relative viability amounted to 0.515.

Still in this assay, the particulars now being: first compound 20 µM.
`COCC1(CO)C(=O)C2CCN1CC2` (stereo unspecified) [PRIMA-1MET] + NC(=O)Nc1cc(-c2cccc(F)c2)sc1C(=O)N[C@H]1CCCNC1 [AZD7762] (partner 0.2 µM) yielded a relative viability of 0.429.
Same read-out and setting: the value for `COCC1(CO)C(=O)C2CCN1CC2` (stereo unspecified) [PRIMA-1MET] + Nc1nc2[nH]cc(CCc3ccc(C(=O)N[C@@H](CCC(=O)O)C(=O)O)cc3)c2c(=O)[nH]1 [Pemetrexed] (partner 0.2 µM) was 0.676; that for `COCC1(CO)C(=O)C2CCN1CC2` (stereo unspecified) [PRIMA-1MET] + CC(=O)Nc1cccc(-n2c(=O)n(C3CC3)c(=O)c3c(Nc4ccc(I)cc4F)n(C)c(=O)c(C)c32)c1 [Trametinib] (partner 0.02 µM) was 0.54; that for `COCC1(CO)C(=O)C2CCN1CC2` (stereo unspecified) [PRIMA-1MET] + Nc1ncn([C@H]2C[C@H](O)[C@@H](CO)O2)c(=O)n1 [Decitabine] (partner 2 µM) was 0.434.

For a further assay, the system named is CAL-12T. Described as above. Conditions: first compound 0.2 µM. The method in brief:
as §1
On to `COCC1(CO)C(=O)C2CCN1CC2` (stereo unspecified) [PRIMA-1MET] + COc1cc2c(Oc3ccc(NC(=O)C4(C(=O)Nc5ccc(F)cc5)CC4)cc3F)ccnc2cc1OCCCN1CCOCC1 [Foretinib] (partner 0.25 µM), for which the relative viability was 1.33.
Compound `COCC1(CO)C(=O)C2CCN1CC2` (stereo unspecified) [PRIMA-1MET] + NC(=O)Nc1cc(-c2cccc(F)c2)sc1C(=O)N[C@H]1CCCNC1 [AZD7762] (partner 0.2 µM) showed a relative viability of 0.603.
In turn, `COCC1(CO)C(=O)C2CCN1CC2` (stereo unspecified) [PRIMA-1MET] + Nc1nc2[nH]cc(CCc3ccc(C(=O)N[C@@H](CCC(=O)O)C(=O)O)cc3)c2c(=O)[nH]1 [Pemetrexed] (partner 0.2 µM) displayed a relative viability of 1.18.
Take `COCC1(CO)C(=O)C2CCN1CC2` (stereo unspecified) [PRIMA-1MET] + CC(=O)Nc1cccc(-n2c(=O)n(C3CC3)c(=O)c3c(Nc4ccc(I)cc4F)n(C)c(=O)c(C)c32)c1 [Trametinib] (partner 0.02 µM): the relative viability is 0.274.

Still in this assay, the particulars now being: first compound 0.6325 µM.
Turning to `COCC1(CO)C(=O)C2CCN1CC2` (stereo unspecified) [PRIMA-1MET] + COc1cc2c(Oc3ccc(NC(=O)C4(C(=O)Nc5ccc(F)cc5)CC4)cc3F)ccnc2cc1OCCCN1CCOCC1 [Foretinib] (partner 0.25 µM), the relative viability is 1.23.
As to `COCC1(CO)C(=O)C2CCN1CC2` (stereo unspecified) [PRIMA-1MET] + Nc1nc2[nH]cc(CCc3ccc(C(=O)N[C@@H](CCC(=O)O)C(=O)O)cc3)c2c(=O)[nH]1 [Pemetrexed] (partner 0.2 µM), the relative viability amounted to 1.19.
The same measure, in the same setting: the value for `COCC1(CO)C(=O)C2CCN1CC2` (stereo unspecified) [PRIMA-1MET] + CC(=O)Nc1cccc(-n2c(=O)n(C3CC3)c(=O)c3c(Nc4ccc(I)cc4F)n(C)c(=O)c(C)c32)c1 [Trametinib] (partner 0.02 µM) was 0.319.

Staying with this assay, now noted: first compound 2 µM.
`COCC1(CO)C(=O)C2CCN1CC2` (stereo unspecified) [PRIMA-1MET] + COc1cc2c(Oc3ccc(NC(=O)C4(C(=O)Nc5ccc(F)cc5)CC4)cc3F)ccnc2cc1OCCCN1CCOCC1 [Foretinib] (partner 0.25 µM) had a relative viability of 1.
The same measure, in the same setting: the value for `COCC1(CO)C(=O)C2CCN1CC2` (stereo unspecified) [PRIMA-1MET] + NC(=O)Nc1cc(-c2cccc(F)c2)sc1C(=O)N[C@H]1CCCNC1 [AZD7762] (partner 0.2 µM) was 0.6.
`COCC1(CO)C(=O)C2CCN1CC2` (stereo unspecified) [PRIMA-1MET] + Nc1nc2[nH]cc(CCc3ccc(C(=O)N[C@@H](CCC(=O)O)C(=O)O)cc3)c2c(=O)[nH]1 [Pemetrexed] (partner 0.2 µM) yielded a relative viability of 1.19.
The same measure, in the same setting: the value for `COCC1(CO)C(=O)C2CCN1CC2` (stereo unspecified) [PRIMA-1MET] + CC(=O)Nc1cccc(-n2c(=O)n(C3CC3)c(=O)c3c(Nc4ccc(I)cc4F)n(C)c(=O)c(C)c32)c1 [Trametinib] (partner 0.02 µM) was 0.313.

Staying with this assay, now noted: first compound 6.325 µM.
With `COCC1(CO)C(=O)C2CCN1CC2` (stereo unspecified) [PRIMA-1MET] + COc1cc2c(Oc3ccc(NC(=O)C4(C(=O)Nc5ccc(F)cc5)CC4)cc3F)ccnc2cc1OCCCN1CCOCC1 [Foretinib] (partner 0.25 µM), the relative viability stood at 1.16.
Same read-out and setting: the value for `COCC1(CO)C(=O)C2CCN1CC2` (stereo unspecified) [PRIMA-1MET] + NC(=O)Nc1cc(-c2cccc(F)c2)sc1C(=O)N[C@H]1CCCNC1 [AZD7762] (partner 0.2 µM) was 0.777; that for `COCC1(CO)C(=O)C2CCN1CC2` (stereo unspecified) [PRIMA-1MET] + Nc1nc2[nH]cc(CCc3ccc(C(=O)N[C@@H](CCC(=O)O)C(=O)O)cc3)c2c(=O)[nH]1 [Pemetrexed] (partner 0.2 µM) was 1.36.
`COCC1(CO)C(=O)C2CCN1CC2` (stereo unspecified) [PRIMA-1MET] + CC(=O)Nc1cccc(-n2c(=O)n(C3CC3)c(=O)c3c(Nc4ccc(I)cc4F)n(C)c(=O)c(C)c32)c1 [Trametinib] (partner 0.02 µM) displayed a relative viability of 0.235.

The same assay, now with this note: first compound 20 µM.
Turning to `COCC1(CO)C(=O)C2CCN1CC2` (stereo unspecified) [PRIMA-1MET] + COc1cc2c(Oc3ccc(NC(=O)C4(C(=O)Nc5ccc(F)cc5)CC4)cc3F)ccnc2cc1OCCCN1CCOCC1 [Foretinib] (partner 0.25 µM), the relative viability was 0.939.
Same read-out and setting: the value for `COCC1(CO)C(=O)C2CCN1CC2` (stereo unspecified) [PRIMA-1MET] + NC(=O)Nc1cc(-c2cccc(F)c2)sc1C(=O)N[C@H]1CCCNC1 [AZD7762] (partner 0.2 µM) was 0.601.
With `COCC1(CO)C(=O)C2CCN1CC2` (stereo unspecified) [PRIMA-1MET] + Nc1nc2[nH]cc(CCc3ccc(C(=O)N[C@@H](CCC(=O)O)C(=O)O)cc3)c2c(=O)[nH]1 [Pemetrexed] (partner 0.2 µM), the relative viability is 0.13.
